From paper PMC12396409, “Screening and hit evaluation of a microbial metabolite library against the pathogenic Plasmodium falciparum and Toxoplasma gondii parasites” (International Journal for Parasitology: Drugs and Drug …, 2025)
Like-named read-outs stand apart in the source and are kept apart here. Where a SMILES comes first, the peptide text is derived from it. [ ]: non-standard residue; d: D form. GABA = NCCCC(=O)O

What was measured:
[1] = system: T. gondii RH strain (RH-Tub-eYFP) tachyzoites; experiment: microbe, parasite or virus in culture; type: cell-based, Toxoplasma gondii; details: 72 h; for percent parasite growth at 2 µg/mL: Toxoplasma gondii
[2] = system: P. falciparum 3D7 parasites; experiment: P. falciparum growth inhibition assay, 2-cycle (120 h treatment), delayed-death screen and dose-response; type: cell-based, Plasmodium falciparum; details: for activity at 2 µg/mL: Plasmodium falciparum
[3] = system: P. falciparum 3D7 parasites; experiment: P. falciparum growth inhibition assay, 1-cycle (72 h treatment), SYBR DNA staining (library screen at 2 μg/mL and dose-response); type: cell-based, Plasmodium falciparum; details: for activity at 2 µg/mL: Plasmodium falciparum
[4] = T. gondii, 2 μg/mL, values are growth (% of control)
[5] = T. gondii, screen at 2 μg/mL, replicate 1
[6] = T. gondii, screen at 2 μg/mL, replicate 2
[7] = P. falciparum, 120 h, screen at 2 μg/mL, replicate 1
[8] = P. falciparum, 120 h, screen at 2 μg/mL, replicate 2
[9] = P. falciparum, 72 h, screen at 2 μg/mL, replicate 1
[10] = P. falciparum, 72 h, screen at 2 μg/mL, replicate 2

CC(=O)O[C@@H]1CC(=O)OC(C)(C)[C@H]2CC[C@@]3(C)[C@@H](CC=C(C)[C@]34C[C@]3(OC(C)=C(C)C3=O)C(=O)O4)[C@@]21C [Setosusin]
Tg_72h_%Growth_Rep1 ([1]; T. gondii, parasite screen 2 μg/mL, % growth, replicate 1): 121.79%
Tg_72h_%Growth_Rep2 ([1]; T. gondii, parasite screen 2 μg/mL, % growth, replicate 2): 85.10%
Pf_120h_%Growth_Rep1 ([2]; P. falciparum, 120 h, parasite screen 2 μg/mL, % growth, replicate 1): 76.96%
Pf_120h_%Growth_Rep2 ([2]; P. falciparum, 120 h, parasite screen 2 μg/mL, % growth, replicate 2): 104.05%
Pf_72h_%Growth_Rep1 ([3]; P. falciparum, 72 h, parasite screen 2 μg/mL, % growth, replicate 1): 71.51%
Pf_72h_%Growth_Rep2 ([3]; P. falciparum, 72 h, parasite screen 2 μg/mL, % growth, replicate 2): 99.05%

CCC(C(=O)C(C)C(O)C(C)CCc1ccc(C)c(O)c1C(=O)O)C1OC(CC)(C2CCC(O)(CC)C(C)O2)CC1C (stereo not drawn) [BIA-L1533]
Tg_72h_%Growth_Rep1 ([1]; T. gondii RH, library screen at 2 μg/mL, % growth, replicate 1): -0.84%
Tg_72h_%Growth_Rep2 ([1]; T. gondii RH, library screen at 2 μg/mL, % growth, replicate 2): -0.33%
Pf_120h_%Growth_Rep1 ([2]; P. falciparum 3D7, 120 h, library screen at 2 μg/mL, % growth, replicate 1): 6.55%
Pf_120h_%Growth_Rep2 ([2]; P. falciparum 3D7, 120 h, library screen at 2 μg/mL, % growth, replicate 2): 19.46%
Pf_72h_%Growth_Rep1 ([3]; P. falciparum 3D7, 72 h, library screen at 2 μg/mL, % growth, replicate 1): 6.55%
Pf_72h_%Growth_Rep2 ([3]; P. falciparum 3D7, 72 h, library screen at 2 μg/mL, % growth, replicate 2): 4.89%

CC1(C)C=Cc2cc3ccc(=O)oc3cc2O1 [Xanthyletin]
percent parasite growth at 2 µg/mL ([1]; T. gondii, screen at 2 μg/mL, replicate 1, read-out: Tg_72h_%Growth_Rep1): 146%
percent parasite growth at 2 µg/mL ([1]; T. gondii, screen at 2 μg/mL, replicate 2, read-out: Tg_72h_%Growth_Rep2): 65.7%
activity at 2 µg/mL ([2]; 3D7, P. falciparum, 120 h, screen at 2 μg/mL, replicate 1, read-out: Pf_120h_%Growth_Rep1): 106%
activity at 2 µg/mL ([2]; 3D7, P. falciparum, 120 h, screen at 2 μg/mL, replicate 2, read-out: Pf_120h_%Growth_Rep2): 81.1%
activity at 2 µg/mL ([3]; 3D7, P. falciparum, 72 h, screen at 2 μg/mL, replicate 1, read-out: Pf_72h_%Growth_Rep1): 88.6%
activity at 2 µg/mL ([3]; 3D7, P. falciparum, 72 h, screen at 2 μg/mL, replicate 2, read-out: Pf_72h_%Growth_Rep2): 22.4%

CCCC[C@H]1C(=O)O[C@H](C)[C@H](NC(=O)c2cccc(NC=O)c2O)C(=O)O[C@@H](C)[C@@H]1OC(=O)CC(C)C [Antimycin A3]
Mean ([1]; T. gondii, 2 μg/mL, mean of both replicates, growth (% of control)): 21.56
Replicate 1 [1, 4]: 30.27
Replicate 2 [1, 4]: 12.84
percent parasite growth at 2 µg/mL ([1]; library screen at 2 μg/mL, % growth, replicate 1, read-out: Tg_72h_%Growth_Rep1): 30.3%
percent parasite growth at 2 µg/mL ([1]; library screen at 2 μg/mL, % growth, replicate 2, read-out: Tg_72h_%Growth_Rep2): 12.8%
activity at 2 µg/mL ([2]; 3D7, 120 h, library screen at 2 μg/mL, 120 h, % growth, replicate 1, read-out: Pf_120h_%Growth_Rep1): 45.4%
activity at 2 µg/mL ([2]; 3D7, 120 h, library screen at 2 μg/mL, 120 h, % growth, replicate 2, read-out: Pf_120h_%Growth_Rep2): 32%
activity at 2 µg/mL ([3]; 3D7, 72 h, library screen at 2 μg/mL, 72 h, % growth, replicate 1, read-out: Pf_72h_%Growth_Rep1): 47.1%
activity at 2 µg/mL ([3]; 3D7, 72 h, library screen at 2 μg/mL, 72 h, % growth, replicate 2, read-out: Pf_72h_%Growth_Rep2): 38.8%

CN[C@@H]1C[C@H]2O[C@@](C)([C@@H]1OC)n1c3ccccc3c3c4c(c5c6ccccc6n2c5c31)C(=O)N[C@H]4O [UCN-02]
Tg_72h_%Growth_Rep1 [1, 5]: 2.39%
Tg_72h_%Growth_Rep2 [1, 6]: 1.72%
Pf_120h_%Growth_Rep1 [2, 7]: 30.31%
Pf_120h_%Growth_Rep2 [2, 8]: 6.39%
Pf_72h_%Growth_Rep1 [3, 9]: 0.18%
Pf_72h_%Growth_Rep2 [3, 10]: -6.73%

CC(C)C[C@@H]1NC(=O)[C@@H](C(C)C)NC(=O)[C@@H](C)NC(=O)CCCNC(=O)[C@@H](Cc2c[nH]c3ccccc23)NC(=O)[C@@H](C)NC(=O)[C@@H](C(C)C)NC1=O [Unguisin B] (cyclo([GABA][dA][dV]L[dV][dA][dW]))
Tg_72h_%Growth_Rep1 [1, 5]: 121.22%
Tg_72h_%Growth_Rep2 [1, 6]: 81.61%
Pf_120h_%Growth_Rep1 [2, 7]: 112.33%
Pf_120h_%Growth_Rep2 [2, 8]: 102.07%
Pf_72h_%Growth_Rep1 [3, 9]: 89.12%
Pf_72h_%Growth_Rep2 [3, 10]: 119.76%

Elaiophylin
Tg_72h_%Growth_Rep1 ([1]; library screen at 2 μg/mL, % growth, replicate 1): -0.18%
Tg_72h_%Growth_Rep2 ([1]; library screen at 2 μg/mL, % growth, replicate 2): 0.99%
Pf_120h_%Growth_Rep1 ([2]; library screen at 2 μg/mL, 120 h, % growth, replicate 1): 18.08%
Pf_120h_%Growth_Rep2 ([2]; library screen at 2 μg/mL, 120 h, % growth, replicate 2): 22.72%
Pf_72h_%Growth_Rep1 ([3]; library screen at 2 μg/mL, 72 h, % growth, replicate 1): 6.63%
Pf_72h_%Growth_Rep2 ([3]; library screen at 2 μg/mL, 72 h, % growth, replicate 2): 7.41%
